Experimental data reported in patent publication US11478466B2, “Small molecule promoting osteoblast differentiation” (Cornell University, priority 2019, dated 2022).

Experiments:
[1] = system: alkaline phosphatase (ALP); experiment: ALP expression staining in C2C12 cells; type: cell-based, mouse; conditions: for ALP expression by staining: C2C12, 2 days, 10 μM
Procedure: C2C12 cells were treated for 2 days with 10 μM DIPQUO or structural analogs, 1 ng/ml rhBMP4, or with inhibitors as noted in figure legends, and then fixed briefly in 70% acetone/10% formaldehyde/20% citrate. Staining was achieved using the leukocyte alkaline phosphatase kit (Sigma 86R-1KT) according to the manufacturer's instructions. Expression of ALP was confirmed and quantified by flow cytometric analysis, using an Accuri C6 flow cytometer. Briefly, control- or DIPQUO-treated C2C12 cells were detached and harvested on day 2 using PBS-based enzyme-free cell detachment solution (ThermoFisher). 2×10^5 cells were incubated on ice for 30 minutes with 10 μl APC-conjugated ALPL antibody (R&D Systems), and washed in ice-cold PBS before analysis. Live cells were gated and analyzed in CFlow Plus software and then data was converted to FlowJo to achieve publication-level resolution. For siRNA experiments, gene-specific oligonucleotides were obtained for mouse p38-alpha (Cell Signaling) and p38-beta (Santa Cruz). Signal Silence scramble siRNA control oligonucleotide was purchased from Cell Signaling. C2C12 cells at 70% confluency were transfected in 12-well plates using Lipofectamine RNAiMax reagent (Invitrogen) according to manufacturer's instructions. Transfected cells were treated 24 hours later with DMSO or 10 μM DIPQUO, and siRNA transfection was repeated after 48 hours without changing culture media. After an additional 3 days, cells were either fixed and stained for ALP expression or analyzed for ALP activity using the AttoPhos Substrate kit. Hemagglutinin and FLAG epitope-tagged MKK3 (pMT2-HA-MKK3) and MKK6 (pcDNA3-FLAG-MKK6) constructs were obtained from Addgene and transfected into C2C12 cells using Lipofectamine LTX with Plus Reagent (ThermoFisher) according to manufacturer's instructions and cell extracts analyzed for protein expression and activity as described below.

[2] = system: alkaline phosphatase (ALP); conditions: for RFU Score (10 μM): 154-analog library, C2C12, duplicate
[3] = system: alkaline phosphatase (ALP); experiment: cells; conditions: Mus musculus; for activation at 10 µM: C2C12, 96 h

| Compound | RFU Score (10 μM) [2] | activation at 10 µM [3] [%] | other results |
| --- | --- | --- | --- |
| COC(=O)c1cc2cc(Cl)ccc2[nH]c1=O [BT344] |  |  | ALP expression by staining [1]: inert; Fluo. Z Score ([2]; SAR of library and proprietary analogs, AttoPhos assay, C2C12): 0.61 ± 0.47; EC50 ([3]; C2C12): 920 nM |
| O=C(O)c1cc2cc(Cl)ccc2[nH]c1=O [BT345] |  |  | ALP expression by staining [1]: inert |
| c1ccc2c(-c3cnn4cc(-c5ccc(N6CCNCC6)cc5)cnc34)ccnc2c1 [LDN193189, reference compound] |  |  | effect of inhibitor on BMP-driven ALP expression (staining) ([1]; C2C12, co-treatment with BMP): attenuated BMP activation of ALP expression |
| O=C(c1[nH]cnc1-c1ccccc1)N1CCC(Oc2ccccc2)C1 (stereo not drawn) [RU-0424523] | 419 | 4.84 |  |
| O=C(c1[nH]cnc1-c1ccccc1)N(Cc1cocn1)Cc1cocn1 [RU-0424524] | 549 | 9.42 |  |
| Cc1cc(C)c2[nH]c(=O)c(CN3CCN(Cc4noc(C)n4)CC3)cc2c1 [RU-0424525] | 563 | 9.94 |  |
| CCn1nc(C(=O)O)c2c1CCN(C(=O)c1[nH]cnc1-c1ccccc1)C2 [RU-0424526] | 545 | 9.28 |  |
| CN(C)C1=NC2(CCN(C(=O)c3[nH]cnc3-c3ccccc3)CC2)C(=O)N1 [RU-0424527] | 575 | 10.5 |  |
| CO[C@@]12CC[C@H](O)C[C@@H]1N(Cc1cc3cc(C)cc(C)c3[nH]c1=O)CC2 [RU-0424528] | 538 | 9.03 |  |
| CN(CC1COCCO1)C(=O)c1ccc(-c2[nH]cnc2-c2ccccc2)cc1 (stereo not drawn) [RU-0424529] | 504 | 7.85 |  |
| Cc1cc(C)c2[nH]c(=O)c(CN3CCCC[C@H](N(C)C)C3)cc2c1 [RU-0424530] | 524 | 8.55 |  |
| O=C(c1[nH]cnc1-c1ccccc1)N1CCOC(c2ccc(F)cc2)C1 (stereo not drawn) [RU-0424531] | 478 | 6.93 |  |
| Cc1cc(C)c2[nH]c(=O)c(CN(C)Cc3ncccc3C)cc2c1 [RU-0424532] | 627 | 12.2 |  |
| O=C(NCc1nnc2ccccn12)c1[nH]cnc1-c1ccccc1 [RU-0424533] | 607 | 11.5 |  |
| CC(C)CN(C)[C@H]1CN(C(=O)c2[nH]cnc2-c2ccccc2)C[C@@H]1O [RU-0424534] | 638 | 12.6 |  |
| Cc1cc(C)c2[nH]c(=O)c(CN3C[C@H]4C(=O)NC[C@@]4(C(=O)O)C3)cc2c1 [RU-0424535] | 518 | 8.32 |  |
| Cc1cc(C)c2[nH]c(=O)c(CN3CCCC(c4ncc[nH]4)C3)cc2c1 (stereo not drawn) [RU-0424536] | 516 | 8.27 |  |
| CNC(=O)[C@@H]1C[C@@H](N)CN1Cc1cc2cc(C)cc(C)c2[nH]c1=O [RU-0424537] | 513 | 8.16 |  |
| O=S(=O)(Nc1ncc(-c2[nH]cnc2-c2ccccc2)cn1)c1ccccc1 [RU-0424538] | 533 | 8.87 |  |
| Cc1cc(C)c2[nH]c(=O)c(-c3nccn3CCCN(C)C)cc2c1 [RU-0424539] | 565 | 10 |  |

| Compound | RFU Score (10 μM) [2] | activation at 10 µM [3] [%] | other results |
| --- | --- | --- | --- |
| c1ccc(-c2nc[nH]c2-c2cnc(N3CCOCC3)s2)cc1 [RU-0424540] | 603 | 11.4 |  |
| Cc1cc(C)c2[nH]c(=O)c(C3CC(=O)Nc4[nH]nc(C(=O)O)c43)cc2c1 (stereo not drawn) [RU-0424541] | 646 | 12.9 |  |
| CO[C@@]12CC[C@@H](O)C[C@@H]1N(Cc1cc3cc(C)cc(C)c3[nH]c1=O)CC2 [RU-0424542] | 641 | 12.7 |  |
| Cc1cc(C)c2[nH]c(=O)c(-c3nccn3C(C)Cn3nc(C)cc3C)cc2c1 (stereo not drawn) [RU-0424543] | 363 | 2.86 |  |
| c1ccc(-c2nc(-c3[nH]cnc3-c3ccccc3)cs2)cc1 [RU-0424544] | 450 | 5.93 |  |
| COc1cccc(-c2[nH]cnc2-c2ccccc2)c1OCCCN(C)C [RU-0424545] | 433 | 5.33 |  |
| Cc1cc(C)c2[nH]c(=O)c(CN3CCCn4cncc4C3)cc2c1 [RU-0424546] | 460 | 6.3 |  |
| Cc1c(-c2[nH]cnc2-c2ccccc2)c2ccccc2n1CC(N)=O [RU-0424547] | 518 | 8.34 |  |
| O=C(NC1CC(=O)N(Cc2ccc(F)cc2)C1)c1[nH]cnc1-c1ccccc1 (stereo not drawn) [RU-0424548] | 467 | 6.54 |  |
| Cc1cc(C)c2[nH]c(=O)c(-c3ncc[nH]3)cc2c1 [RU-0424549] | 445 | 5.75 |  |
| Cc1cc(C)c2[nH]c(=O)c(CN3CCN(C)[C@@H]4CS(=O)(=O)C[C@@H]43)cc2c1 [RU-0424550] | 304 | 0.78 |  |
| O=C(c1[nH]cnc1-c1ccccc1)N1CCCC(c2ccn[nH]2)C1 (stereo not drawn) [RU-0424551] | 452 | 6 |  |
| O=C(NCCc1nnc2n1CCNCC2)c1[nH]cnc1-c1ccccc1 [RU-0424552] | 485 | 7.18 |  |
| Cc1cc(C)c2[nH]c(=O)c(CN3CCC(NS(C)(=O)=O)CC3)cc2c1 [RU-0424553] | 454 | 6.08 |  |
| CCN(C)Cc1cc2n(n1)CCN(C(=O)c1[nH]cnc1-c1ccccc1)C2 [RU-0424554] | 409 | 4.5 |  |
| O=C(O)CCc1cc2n(n1)CCN(C(=O)c1[nH]cnc1-c1ccccc1)C2 [RU-0424555] | 443 | 5.68 |  |
| NS(=O)(=O)CC1CCN(C(=O)c2[nH]cnc2-c2ccccc2)C1 (stereo not drawn) [RU-0424556] | 435 | 5.4 |  |
| COc1cc2c(cc1O)NC(=O)CC2c1cc2cc(C)cc(C)c2[nH]c1=O (stereo not drawn) [RU-0424557] | 430 | 5.24 |  |
| COC(=O)[C@H]1C[C@@H](O)CCN1Cc1cc2cc(C)cc(C)c2[nH]c1=O [RU-0424558] | 399 | 4.15 |  |
| C[C@@H]1CN(Cc2ccc(F)cc2)[C@@H](C)CN1C(=O)c1cc2c(C(=O)C(=O)N(C)C)cn(C)c2cc1Cl [SCI0469, reference compound] |  |  | effect of inhibitor on DIPQUO-driven ALP expression (staining) ([1]; C2C12, co-treatment with DIPQUO): attenuated ALP expression in DIPQUO-treated cells |
